These results are taken from patent publication US20050014849A1, “Antifungal phenylethylene” (priority 2001, published 2005).

Assay [1] concerns T1, bovine brain tubulin.
T1 construct: Electrophoretically homogeneous bovine brain tubulin [12]
The assay is described as follows: Tubulin polymerization assay. Type of assay: biochemical. Conditions: 1 mg/ml tubulin; 20 min incubation at 30° C. As for the experimental part: (§1) Electrophoretically homogeneous bovine brain tubulin [12] was used in studies to evaluate the effects of TMPN on in vitro tubulin polymerization and the binding of […] (Dupont-NEN) to tubulin. These studies were performed as described previously. In the polymerization assay, varying drug concentrations were added to 1 mg/ml tubulin to determine the amount of drug that would inhibit the extent of the reaction by 50% (20 min incubation at 30° C.) (IC50 value). In the colchicine binding assay, the effect of varying drug concentrations on the binding of 2 μg/ml colchicine to 100 μg/ml tubulin was measured after 10 min at 37° C. (control reaction about 50% complete).

The subject of assay [2] is T1, bovine brain tubulin. The experiment in a line: Colchicine binding assay. The following applies: 5 μM (combretastatin A-4 1.6 μg/ml; TMPN 1.2 μg/ml); 10 min at 37° C. As for the experimental part: as §1

Take `COc1ccc(/C=C\c2cc(OC)c(OC)c(OC)c2)cc1O` [combretastatin A-4, reference compound]: the “IC50 for inhibition of the extent of tubulin assembly” value with bovine brain tubulin [1] was found to be 0.32 ± 0.02 µg/mL. Moreover, in the assay with bovine brain tubulin [2], the “inhibition of [^3H]colchicine binding to tubulin” value was 98+1%.
